# According to US20200121716A1, “Method for Inhibiting Both Glycolysis and Glutamine Metabolism in Cells and Use Thereof” (priority 2017, published 2020):
# System: anaerobia
# Assay: spontaneous anaerobic fermentation of flour paste sealed with rapeseed oil
# Format: cell-based
row,Compound,aqueous solution above the settled flour
1,O=CO [formic acid],clear and transparent
2,O=C([O-])C(=O)[O-].[Na+].[Na+] [sodium oxalate],clear and transparent
